The subject of experiment [1] is fatty liver model induced by a high-fat diet. The experiment can be described thus: Fatty liver model induced by high-fat diet. In kind it is in vivo, C57BL/6J mice. An excerpt:
In the present invention, a high fat diet (HFD: 60% fat calories, Research diets, D12492, US) was used as an obesity induction diet.
Six-week-old male C57BL/6J mice (Central Lab. Animal Inc., Seoul, Korea) were acclimated to an experimental environment for one week while being fed solid food, and then randomly divided into a control group and an experimental group for a high-fat diet using a randomized block design. The animal groups were fed for 12 weeks, and thus, fatty liver animal models were established. Fatty liver development was determined according to blood biochemical and histochemical analysis methods. The mice were orally fed with the high-fat diet only for six weeks, and in combination with a GPR119 ligand (10 mg/kg) suspended in 40% PEG400 once a day for five days every week. Choline-deficient, amino acid-fixed high-fat diet steatohepatitis models were prepared by feeding six-week-old male C57BL/6J mice (Central Lab. Animal Inc., Seoul) with a diet containing 60 kcal fat and 0.1% methionine for four weeks. After terminating the experiment, experimental animals fasted for 12 hours or more. Subsequently, blood, liver, and adipose tissues in intestines (epididymal fat, kidney-surrounding fat) were collected from the animals that had been anesthetized with diethyl ether and then washed with a 0.1 M phosphate buffered saline (pH 7.4), followed by being weighed. Blood collected from abdominal aortas was centrifuged at 3000 rpm for 20 minutes using SST tubes to separate serum.
A total cholesterol concentration and a total glucose concentration in serum from each of the aforementioned experimental animals raised for 12 weeks were measured as follows. Each of the total cholesterol concentration and the total glucose concentration in serum was measured twice by means of a commercial measurement kit (Bio Clinical Systems). The amount of alanine aminotransferase (ALT) in blood used as a liver function index was measured by means of a commercial analysis kit (Bio Clinical Systems, Korea).
The collected liver tissues were fixed with a 10% neutral formalin solution and then subjected to a common fixation procedure and dehydration process, followed by embedding the same in paraffin. The embedded tissues were sectioned to a thickness of 4 μm and stained with H&E. The stained tissues were observed by means of an optical microscope.
A predetermined amount of each of the liver tissues was homogenized in liquid nitrogen and a cell lysis buffer in a mortar, and then a lysed tissue solution was transferred to a new tube, followed by vortexing. […] A middle layer of the centrifuged solution was collected and then subjected to protein quantification by the Bradford assay. […] Expression changes of FAS and SREBP-1c proteins were measured by western blotting. […]

The subject of experiment [2] is SREBP-1c. The experiment is described as follows: SREBP-1c expression under high-glucose/high-insulin exposure, primary hepatocytes (western blot). The format is cell-based, mouse. Particulars: 0.3-10 μM ligand. On the procedure: Liver cells were collected from male C57BL/6 mice (Central Lab. Animal Inc., Seoul) according to a method by Seglen et al. (Exp Cell Res., 82, pp 391-398, 1973). Each C57BL/6 mouse was anesthetized and then the abdomen thereof was incised. Subsequently, the hepatic portal vein was intubated and a gas mixture of 5% CO2 and 95% O2 was insufflated thereinto. A Ca^2+ and Mg^2+-free Hank's balanced salt solution at 37° C. was flowed into the tube to remove blood in the liver. Subsequently, a 0.1% collagenase type IV (Sigma, US) solution was flowed thereinto. The liver tissue was removed from the body, and then prepared into a hepatocyte suspension. The prepared hepatocyte suspension was centrifuged at 50×g for two minutes. […]
Sodium dodecyl sulfate-polyacrylamide gel electrophoresis (SDS-PAGE) was carried out by means of a gel electrophoresis device (Mighty Small SE 250, Hoefer Scientific Instruments, San Francisco) according to a method by Laemmli (UK, Nature 227, 680-685, 1970). […] Whether total protein contents in samples are the same is determined using anti-β-actin and anti-LaminA/C antibodies. Changes in protein expression amounts were determined by measuring the intensities of chemiluminescence signals on the blot by means of densitometry. […] Each lane was calculated using AlphaEase™ version 5.5 software and background intensity was removed from the calculated values. […]

This note sets out measurements from patent publication US20190008864A1, “PHARMACEUTICAL COMPOSITION CONTAINING GPR119 LIGAND AS EFFECTIVE INGREDIENT FOR PREVENTING OR TREATING NON-ALCOHOLIC STEATOHEPATITIS” (PHARMEDIX.CO., LTD., priority 2014, published 2019).

Each structure is given as a SMILES string.

Turning to `CCc1cnc(N2CCC(c3nc(COc4ccc(-n5cnnn5)cc4)cs3)CC2)nc1` [MBX2982, 4-((4-(1H-tetrazol-1-yl)phenoxy)methyl)-2-(1-(5-ethylpyrimidin-2-yl)piperidin-4-yl)thiazole], in experiment [1] (animal models fed with a high-fat diet), the fatty liver development result is on record as “completely inhibited”. Further, the “fat weight in the tissue” value in experiment [1] (high-fat diet mice, 10 mg/kg oral) is listed as “significantly decreased”. In experiment [1] (mice administered ligand, compared to a control group), the “mRNA level of GPR119 in liver” value is given as “seven-fold increased”. Further, in experiment [2], the “SREBP-1c and nuclear (active-type) SREBP-1C expression increased by high-glucose/high-insulin” value is on record as “completely inhibited”.
